# In patent publication US20070015827A1, “Methods and compositions for treating ophthalmic conditions via serum retinol, serum retinol binding protein (RBP), and/or serum retinol-RBP modulation” (Sytera, Inc., priority 2005, published 2007):
# “Also recorded” adds a separate entry of the source.
# Experiments:
# [1] = system: abca4 null mutant mice; experiment: A2E and A2PE-H2 in eyes after chronic treatment (HPLC); assay type: in vivo, mouse
# Experimental: Tissue Extraction. Eye samples were thawed on ice in 1 ml of PBS, pH 7.2 and homogenized by hand using a Duall glass-glass homogenizer. The sample was further homogenized following the addition of 1 ml chlorofomm/methanol (2:1, v/v). The sample was transferred to a boroscilicate tube and lipids were extracted into 4 mls of chloroform. The organic extract was washed with 3 mls PBS, pH 7.2 and the samples were then centrifuged at 3,000×g, 10 min. The choloroform phase was decanted and the aqueous phase was re-extracted with another 4 mls of chloroform. Following centrifugation, the chloroform phases were combined and the samples were taken to dryness under nitrogen gas. Samples residues were resuspended in 100 μl hexane and analyzed by HPLC as described below.
# HPLC Analysis. Chromatographic separations were achieved on an Agilent Zorbax Rx-Sil Column (5 μm, 4.6×250 mm) using an Agilent 1100 series liquid chromatograph equipped with fluorescence and diode array detectors. The mobile phase (hexane/2-propanol/ethanol/25 mM KH2PO4, pH 7.0/acetic acid; 485/376/100/50/0.275, v/v) was delivered at 1 ml/min. Sample peak identification was made by comparison to retention time and absorbance spectra of authentic standards. Data are reported as peak fluorescence (L.U.) obtained from the fluorescence detector.
# We initiated a one-month study to evaluate the effects of HPR on reduction of A2E and A2E precursors in abca4 null mutant mice. HPR was administered in DMSO (20 mg/kg, ip) to abca4 null mutant mice (BL6/129, aged 2 months) daily for a period of 28 days. Control age/strain matched mice received only the DMSO vehicle. Mice were sampled at 0, 14, and 28 days (n=3 per group), the eyes were enucleated and chloroform-soluble constituents (lipids, retinoids and lipid-retinoid conjugates) were extracted. Mice were sacrificed by cervical dislocation, the eyes were enucleated and individually snap frozen in cryo vials. The sample extracts were then analyzed by HPLC with on-line fluorescence detection. Results from this study show remarkable, early reductions in the A2E precursor, A2PE-H2, see FIG. 4a, and subsequent reductions in A2E, see FIG. 4b. […] A similar study may be undertaken to ascertain effects of HPR treatment on the electroretinographic and morphological phenotypes.
# ABCA4 null mutant mice were given the indicated dose of HPR in DMSO or DMSO alone daily for 28 days (n=16 mice per treatment group). At study onset, mice in the 2.5 mg/kg group were 2 months of age, mice in the other treatment groups were 3 months of age. At the indicated times, representative mice were taken from each group (n =4) for analysis of A2E precursor compounds (see FIG. 10, A2PE-H2, panels A, C and E) and A2E (see FIG. 10, panels B, D and F). Eyes were enucleated, hemisected and lipid soluble components were extracted from the posterior pole by chloroform/methanol-water phase partitioning. Sample extracts were analyzed by LC. Identity of the eluted compounds was confirmed by UV-vis absorption spectroscopy and co-elution of sample peaks with authentic standards. Note: limitations in appropriately age and strain-matched mice in the 10 mg/kg group prevented analysis at the 14-day interval.
# Extraction and Analysis of Retinoids and A2E. Steady-state levels of retinoids and A2E in eyecups of ABCA4−/− mice were determined following daily administration (28 days) of HPR (FIG. 12). Mice were sacrificed, the eyes enucleated, and the posterior portion of each eye was used for extraction of retinoids or A2E. Methodologies used for extraction of retinoids and A2E from eye tissue and HPLC analysis techniques have been described. See, e.g., Mata N L, Weng J, Travis G H. Biosynthesis of a major lipofuscin fluorophore in mice and humans with ABCR-mediated retinal and macular degeneration. Proc Natl Acad Sci USA. 2000; 97:7154-7159; Weng J, et al.; Cell. 1999;98:13-23; Mata N L, et al.; Invest. Ophthalmol. Visual Sci. 2001; 42:1685-1690. […]
# [2] = Ocular retinoid content after 7 days of HPR (HPLC); assay type: in vivo, mouse; conditions: mouse, RPE (retinal pigment epithelium), intraperitoneal, HPR 5-20 mg/kg/day i.p. in DMSO, dose-dependent, read-out: accumulation of HPR within the RPE
# Experimental: (§1) In one study, wild-type mice were given varied doses of HPR (5-20 mg/kg/day, i.p. in DMSO) for 7 days. Control mice received only DMSO. Mice were maintained on a 12 h/12 h light/dark cycle throughout the treatment period. At the end of the study, the ocular retinoid content was determined by high-performance liquid chromatography (HPLC). Light-adapted, rather than dark-adapted, retinoid profiles were obtained so that a measure of retinoids could be obtained while the visual cycle was actively regenerating chromophore. […] This finding is in sharp contrast to data obtained from analysis of mice treated with 13-cis retinoic acid. […] Reduced 11cRDH activity would lead to reduced levels of 11-cis retinal and accumulation of 11-cis retinol. Free 11-cis retinol would be rapidly esterified via LRAT activity resulting in increased 11-cis retinyl esters. This effect of 13-cis retinoic acid on retinoid biosynthesis was also observed in rats in Sieving P A, et al., Proc Natl Acad Sci USA. 2001; 98(4): 1835-40.
# [3] = system: wild-type mice; experiment: Ocular retinoid content after 7 days of HPR (HPLC); assay type: in vivo, mouse; conditions: HPR 5-20 mg/kg/day i.p.
# Experimental: as §1
# [4] = system: abca4 −/− mice; experiment: HPR and retinaldehyde content after 7 days, dark- and light-adapted; assay type: in vivo, mouse; conditions: HPR 10 mg/kg/day
# Experimental: The effect of HPR on visual chromophore biosynthesis was examined in a separate study in which a […] of HPR (10 mg/kg/day) was administered to abca4 −/− mice over a 7-day period.
# [5] = Steady-state retinoid levels and visual chromophore regeneration after 28 days of HPR; assay type: in vivo, mouse; conditions: abca4 -/- (knockout line; background strain not stated), mouse, RPE tissue, intraperitoneal, HPR 10 mg/kg, read-out: HPR present within RPE tissue
# Experimental: (§2) Both steady-state retinoid levels and rates of visual chromophore regeneration were evaluated in abca4 −/− mice following a 28-day treatment period with 10 mg/kg HPR. Light-adapted levels of all visual cycle retinoids were reduced by ˜50% compared to control animals receiving only DMSO (FIG. 16A). Although HPR was present within RPE tissue (˜10 μM), the rate of rhodopsin regeneration (FIG. 16B) and removal of bleached photoproduct (Figure 16C) were not affected. The calculated time constant for regeneration of visual chromophore was nearly identical for both DMSO- and HPR-treated mice (0.37 h time constant to fully regenerate visual chromophore, FIG. 16D).
# (§3) Panels D-F of FIG. 9 are electrophysiological measurements of rod function (panel D), rod and cone function (panel E) and recovery from photobleaching (panel F).
# [6] = system: abca4 −/− mice; experiment: as above; assay type: in vivo, mouse
# Experimental: as §2, §3
# [7] = cited from earlier work
smiles,measurement,setting,value
"CC1=C(/C=C/C(C)=C/C=C/C(C)=C/C(=O)Nc2ccc(O)cc2)C(C)(C)CCC1 [HPR, N-(4-hydroxyphenyl)retinamide]",reduction in A2PE-H2,"[1]; HPR 2.5 mg/kg daily, 28 days, 2-month old mice",~47%
same,less A2E accumulated compared to DMSO littermates,"[1]; HPR 10 mg/kg daily, 28 days",~50%
same,reduction of A2E,"[1]; HPR 20 mg/kg ip daily, 28 days",55%
same,reduction of A2PE-H2,"[1]; HPR 20 mg/kg ip daily, 28 days",70%
same,accumulation of A2E and lipofuscin autofluorescence in the RPE (in words),"[1]; mouse, in vivo",arrested accumulation
same,concentration at 7 days,[2],4 to 6 µM
same,differences in light-adapted retinoid levels,[3],no significant differences
same,effect on steady-state retinal levels or regeneration of visual chromophore,[4],essentially no effect
same,concentration at 28 days,[5],~10 µM
same,removal of bleached photoproduct,[6]; HPR 10 mg/kg,not affected
same,regeneration of visual chromophore (rate of rhodopsin regeneration),[6]; HPR 10 mg/kg daily,not affected; also recorded: does not affect; also recorded: normal
same,calculated time constant to fully regenerate visual chromophore,"[6]; HPR 10 mg/kg, nearly identical for DMSO",0.37 h
same,observed toxicities,"[7]; 4800 mg/m^2 dose, three times daily",minimal
same,plasma concentration after high fat meals versus carbohydrate meals,"[7]; human, in vivo",three times greater
